# Results taken from publication PMC7156724, “Potent BRD4 inhibitor suppresses cancer cell-macrophage interaction” (Nature Communications, 2020).
# Where “and” joins values, the source holds several entries; their conditions need not be identical. Equal entries are not always repeated.
# How the values were obtained:
# [1] = test system: BRD4 binding to the HIF1A promoter; experiment: BRD4 ChIP-qPCR of the HIF1A promoter in A2780 cells; assay type: cell-based, human
# Procedure: Fig. 7 NHWD-870 inhibited CSF1 expression through suppressing BRD4 and HIF1α in tumor cells. a, b Representative western blot analysis of control (Ctrl) and BRD4 knockout (KO) A375 and A2780 cells exposed to 20% or 1% O2 for 24 hours. Selected from three independent experiments. c, d Representative western blot analysis of A375 and A2780 cells treated with DMSO or 25 nM NHWD-870 and exposed to 20% or 1% O2 for 24 h. Selected from three independent experiments. e Relative HIF1 luciferase reporter activity in control (Ctrl), BRD4 knockout (KO), or NHWD-870 treated A375 and A2780 cells exposed to 20% or 1% O2 for 24 h. Data are presented as mean ± SEM from three independent experiments. f RT-qPCR analyses of CSF1 in control (Ctrl), BRD4 knockout (KO), or NHWD-870 treated A375 and A2780 cells exposed to 20% or 1% O2 for 24 hours. Data are presented as mean ± SEM from three independent experiments. g RT-qPCR analyses of HIF1A in A375 or A2780 cells treated with 15 nM NHWD-870 or DMSO control for 24 h. Data are presented as mean ± SEM from three independent experiments. h Genome browser view of BRD4 ChIP-seq peaks on the HIF1A promoter. Shown are BRD4 ChIP and input control of A375 cells (top panel) and BRD4 ChIP of MDA-MB231 cells treated with DMSO or JQ-1 (bottom panel). i BRD4 ChIP-qPCR analyses of the HIF1A promoter in A2780 cells treated with DMSO or NHWD-870 for 72 h. Data are presented as mean ± SEM from three independent experiments. j RT-qPCR analyses of CSF1 in A375 and A2780 cells were transiently transduced with HIF1α, then exposed to 1% O2 for 24 h. Ctrl, Control. Data are presented as mean ± SEM from three independent experiments. k A model showing the effects of NHWD-870 on cancer cell-TAM interaction. NHWD-870 inhibits the proliferation and survival of TAMs partly by inhibiting BRD4 activity, HIF1α expression, and CSF1 secretion by tumor cells, and downregulating CSF1R mediated ERK and PI3K/AKT signaling in TAMs. p values were calculated using two-tailed, unpaired t tests in this figure. *p < 0.05; **p < 0.01; ***p < 0.001. […]
# [2] = test system: phosphorylated BRD4 and c-MYC; experiment: Western blot of p-BRD4, BRD4 and c-MYC in solid tumor cell lines; assay type: cell-based, human; settings: 24 h
# Procedure: Fig. 2 NHWD-870 inhibited BRD4 phosphorylation and c-MYC expression, and suppressed cell growth. a Representative western blot analysis of p-BRD4 (s484/488), BRD4, c-MYC, and GAPDH after treatment of MDA-MB231, SUM159, A2780 ES-2, and H526 cells with JQ-1 or NHWD-870 at the indicated concentrations for 24 h. GAPDH served as the loading control. Selected from three independent experiments. b MTT assays of H526, A2780, ES-2, and MDA-MB231 cells treated with JQ-1 or NHWD-870 at the indicated concentrations for 5 days. Data are presented as mean ± SEM from three independent experiments. c, d Clonogenic assays of H526, A2780, ES-2 and MDA-MB231 cells treated with 250 nM JQ-1 or NHWD-870 for 5 days. Shown are representative images (c) and quantification of colonies (d). […] Shown are representative images (e) and quantification of relative colony sizes (f). Scale bar, 50 μm. Data are presented as mean ± SEM from five independent experiments. p values were calculated using two-tailed, unpaired t tests in this figure. **p < 0.01; ***p < 0.001. Source data are provided as a Source Data file. […]
# 4. Protein extraction and w estern blot anal ysis. Freshly dissected unfixed tissue was homogenized in lysis buffer. The lysates were centrifuged at 13,000g for 10 minutes at 4°C. Supernatants were collected and determined with a Bradford Protein Assay kit (Bio-Rad, Hercules, CA). The cell lysates were subjected to SDS-PAGE followed by immunoblotting (Immobilon P; Millipore, Milford, MA) with specific antibodies followed by detection using an enhanced chemilumine scence kit (Amersham Life Science, Arlington Heights, IL). […]
compound,measurement,setting,value
Cc1nnn(C)c1-c1cnc2c3c4cnn(C)c4ccc3n([C@H](c3ccccc3)C3CCOCC3)c2c1 [NHWD-870],"ChIP-qPCR enrichment relative to input, IgG (Fig.7i)","[1]; A2780, 15nM 3 days",0.411 and 0.4665 and 0.4566
same,"ChIP-qPCR enrichment relative to input, anti-BRD4 (Fig.7i)","[1]; A2780, 15nM 3 days",0.646 and 0.721 and 0.6555
same,BRD4 binding to the HIF1A promoter (ChIP-qPCR),"[1]; A2780 cells, 15nM, 72 h",decreased BRD4 binding to the HIF1A promoter
same,effect on phosphorylated BRD4 and c-MYC (western blot),[2]; 10 nM,depletion of phosphorylated BRD4 and c-MYC
same,effect on the stability of BRD4 (western blot),[2],minimal effects on the stability of BRD4
